In ChEMBL document CHEMBL1806359, “Synthesis and evaluation of bidentate ligands designed to interact with PDZ domains” (Bioorg Med Chem, 2011):

Biological target: Disks large homolog 4 (Mus musculus) (UniProt Q62108)
Experiment: Binding affinity to Swiss mouse brain PSD95 domain assessed as inhibition of PSD95-5-HT2A receptor C-terminal decapeptide interaction after overnight incubation by chemiluminescence assay
Assay type: tissue-based

Disks large homolog 4 (Mus musculus), sequence (Q62108 whole entry, looked up, the tested form may be a part): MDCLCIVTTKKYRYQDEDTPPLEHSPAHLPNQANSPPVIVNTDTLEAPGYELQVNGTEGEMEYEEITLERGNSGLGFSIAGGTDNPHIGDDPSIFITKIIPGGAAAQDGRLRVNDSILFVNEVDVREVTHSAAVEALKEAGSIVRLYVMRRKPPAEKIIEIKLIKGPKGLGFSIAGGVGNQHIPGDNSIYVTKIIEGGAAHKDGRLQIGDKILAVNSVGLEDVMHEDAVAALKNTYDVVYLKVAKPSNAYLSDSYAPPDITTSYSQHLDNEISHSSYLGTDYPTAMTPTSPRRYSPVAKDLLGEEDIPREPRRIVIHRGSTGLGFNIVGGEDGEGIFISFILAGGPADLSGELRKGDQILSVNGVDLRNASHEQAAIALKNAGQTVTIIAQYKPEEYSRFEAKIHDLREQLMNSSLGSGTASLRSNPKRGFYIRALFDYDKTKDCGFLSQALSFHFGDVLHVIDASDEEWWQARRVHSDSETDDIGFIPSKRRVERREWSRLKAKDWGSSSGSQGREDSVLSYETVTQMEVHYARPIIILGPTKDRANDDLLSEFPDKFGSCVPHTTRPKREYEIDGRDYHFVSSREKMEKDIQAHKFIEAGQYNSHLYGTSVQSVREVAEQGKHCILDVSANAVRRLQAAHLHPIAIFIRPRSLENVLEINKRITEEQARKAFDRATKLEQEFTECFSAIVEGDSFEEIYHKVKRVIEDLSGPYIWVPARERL

inhibition	SMILES
Dose-dependent effect	Cc1c(C(=O)NCCN)[nH]c2ccc(C(=O)O)cc12
Dose-dependent effect	Cc1c(C(=O)NCCNC(=O)[C@@H](N)Cc2c[nH]c3ccccc23)[nH]c2ccc(C(=O)O)cc12
Dose-dependent effect	Cc1c(C(=O)O)[nH]c2ccc(C(=O)O)cc12
